From patent US20230085307A1, “PYRIDAZINONE COMPOUND AND HERBICIDE” (NISSAN CHEMICAL CORPORATION, priority 2019, published 2023)

Assays:
false cleavers = experiment: Test Example 4: herbicidal effect by soil treatment (Table 19, symbol Q); format: in vivo, false cleavers (Galium spurium); details: amount of applied herbicide 320 g/ha
Outline: (§1)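 Applied as a water-diluted emulsion, the compound was sprayed onto soil covering newly sown seeds. Evaluation came three weeks after application, in a greenhouse held at 25° C. to 30° C.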

barnyard grass [1] = experiment: Test Example 4: herbicidal effect by soil treatment (Table 19, symbol H); format: in vivo, barnyard grass (Echinochloa crus-galli); details: amount of applied herbicide 320 g/ha
Outline: as §1

rice flat sedge = experiment: Test Example 3: herbicidal effect by foliage application, Wagner pot (Table 18, symbol E); format: in vivo, rice flat sedge (Cyperus iria)
Outline: (§2)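 Plants were sown in alluvial soil held under 0.1–0.5 cm standing water and grown 14 days in a greenhouse at 25–30 °C. An emulsifiable formulation, water-diluted to the set dose, was then sprayed onto the foliage, and effects were scored three weeks later using previously defined criteria.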

velvetleaf [2] = experiment: Test Example 4: herbicidal effect by soil treatment (Table 19, symbol M); format: in vivo, velvetleaf (Abutilon theophrasti); details: amount of applied herbicide 320 g/ha
Outline: as §1

persian speedwell [3] = experiment: Test Example 4: herbicidal effect by soil treatment (Table 19, symbol R); format: in vivo, Persian speedwell (Veronica persica); details: amount of applied herbicide 320 g/ha
Outline: as §1

Italian ryegrass [4] = experiment: Test Example 5: herbicidal effect by foliage application, plastic box (Table 20, symbol K); format: in vivo, Italian ryegrass (Lolium multiflorum); details: foliage application
Outline: (§3)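 Sow seeds spot-wise in sterilized diluvial soil; cover with ~1.5 cm soil. Grow 14 days in greenhouse, 25° C. to 30° C. Spray foliage with emulsion diluted to predetermined amount. Rate effect after 3 weeks.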

southern crabgrass [5] = experiment: Test Example 5: herbicidal effect by foliage application, plastic box (Table 20, symbol F); format: in vivo, southern crabgrass (Digitaria ciliaris); details: foliage application
Outline: as §3

velvetleaf [6] = experiment: Test Example 5: herbicidal effect by foliage application, plastic box (Table 20, symbol M); format: in vivo, velvetleaf (Abutilon theophrasti); details: foliage application
Outline: as §3

Italian ryegrass [7] = experiment: Test Example 4: herbicidal effect by soil treatment (Table 19, symbol K); format: in vivo, Italian ryegrass (Lolium multiflorum); details: amount of applied herbicide 320 g/ha
Outline: as §1

blackgrass [8] = experiment: Test Example 4: herbicidal effect by soil treatment (Table 19, symbol J); format: in vivo, blackgrass (Alopecurus myosuroides); details: amount of applied herbicide 320 g/ha
Outline: as §1

redroot pigweed [9] = experiment: Test Example 5: herbicidal effect by foliage application, plastic box (Table 20, symbol N); format: in vivo, redroot pigweed (Amaranthus retroflexus); details: foliage application
Outline: as §3

green foxtail [10] = experiment: Test Example 4: herbicidal effect by soil treatment (Table 19, symbol G); format: in vivo, green foxtail (Setaria viridis); details: amount of applied herbicide 320 g/ha
Outline: as §1

southern crabgrass [11] = experiment: Test Example 4: herbicidal effect by soil treatment (Table 19, symbol F); format: in vivo, southern crabgrass (Digitaria ciliaris); details: amount of applied herbicide 320 g/ha
Outline: as §1

chickweed [12] = experiment: Test Example 4: herbicidal effect by soil treatment (Table 19, symbol P); format: in vivo, common chickweed (Stellaria media); details: amount of applied herbicide 320 g/ha
Outline: as §1

Chinese sprangletop = experiment: Test Example 3: herbicidal effect by foliage application, Wagner pot (Table 18, symbol D); format: in vivo, chinese sprangletop (Leptochloa chinensis)
Outline: as §2

windgrass [13] = experiment: Test Example 5: herbicidal effect by foliage application, plastic box (Table 20, symbol L); format: in vivo, windgrass (Apera spica-venti); details: foliage application
Outline: as §3

chickweed [14] = experiment: Test Example 5: herbicidal effect by foliage application, plastic box (Table 20, symbol P); format: in vivo, common chickweed (Stellaria media); details: foliage application
Outline: as §3

blackgrass [15] = experiment: Test Example 5: herbicidal effect by foliage application, plastic box (Table 20, symbol J); format: in vivo, blackgrass (Alopecurus myosuroides); details: foliage application
Outline: as §3

redroot pigweed [16] = experiment: Test Example 4: herbicidal effect by soil treatment (Table 19, symbol N); format: in vivo, redroot pigweed (Amaranthus retroflexus); details: amount of applied herbicide 320 g/ha
Outline: as §1

wild oat [17] = experiment: Test Example 4: herbicidal effect by soil treatment (Table 19, symbol I); format: in vivo, wild oat (Avena fatua); details: amount of applied herbicide 320 g/ha
Outline: as §1

persian speedwell [18] = experiment: Test Example 5: herbicidal effect by foliage application, plastic box (Table 20, symbol R); format: in vivo, Persian speedwell (Veronica persica); details: foliage application
Outline: as §3

lambsquarters [19] = experiment: Test Example 5: herbicidal effect by foliage application, plastic box (Table 20, symbol O); format: in vivo, lambsquarters (Chenopodium album); details: foliage application
Outline: as §3

windgrass [20] = experiment: Test Example 4: herbicidal effect by soil treatment (Table 19, symbol L); format: in vivo, windgrass (Apera spica-venti); details: amount of applied herbicide 320 g/ha
Outline: as §1

barnyard grass [21] = experiment: Test Example 5: herbicidal effect by foliage application, plastic box (Table 20, symbol H); format: in vivo, barnyard grass (Echinochloa crus-galli); details: foliage application
Outline: as §3

barnyard grass [22] = experiment: Test Example 3: herbicidal effect by foliage application, Wagner pot (Table 18, symbol H); format: in vivo, barnyard grass (Echinochloa crus-galli)
Outline: as §2

wild oat [23] = experiment: Test Example 5: herbicidal effect by foliage application, plastic box (Table 20, symbol I); format: in vivo, wild oat (Avena fatua); details: foliage application
Outline: as §3

green foxtail [24] = experiment: Test Example 5: herbicidal effect by foliage application, plastic box (Table 20, symbol G); format: in vivo, green foxtail (Setaria viridis); details: foliage application
Outline: as §3

lambsquarters [25] = experiment: Test Example 4: herbicidal effect by soil treatment (Table 19, symbol O); format: in vivo, lambsquarters (Chenopodium album); details: amount of applied herbicide 320 g/ha
Outline: as §1

[26] = 320 g/ha, three weeks after application
[27] = amount of applied herbicide 320 g/ha
[28] = AAH 320 g/ha, evaluated three weeks after application

## CCCC(=O)Oc1c(C)nn(C)c(=O)c1-c1c(-c2ccc(F)cc2SC)sc2ccccc12 [1-064]
False cleavers
  herbicidal effect rating, Q: false cleavers: 0 (Herbicidal rate of 5% or less (almost no effect))
Barnyard grass [1]
  herbicidal effect rating, H: barnyard grass: 0 (Herbicidal rate of 5% or less (almost no effect))
Rice flat sedge; 320 g/ha
  herbicidal effect on E (rice flat sedge), rating 0-5: 3 (Herbicidal rate of 40% or more and less than 70%)
Velvetleaf [2]
  herbicidal effect rating, M: velvetleaf: 0 (Herbicidal rate of 5% or less (almost no effect))
Persian speedwell [3]
  herbicidal effect rating, R: persian speedwell: 0 (Herbicidal rate of 5% or less (almost no effect))
Italian ryegrass [4]; [26]
  herbicidal effect grade, K: Italian ryegrass: 0 (Herbicidal rate of 5% or less (almost no effect))
Southern crabgrass [5]; [26]
  herbicidal effect grade, F: southern crabgrass: 0 (Herbicidal rate of 5% or less (almost no effect))
Velvetleaf [6]; [26]
  herbicidal effect grade, M: velvetleaf: 0 (Herbicidal rate of 5% or less (almost no effect))
Italian ryegrass [7]
  herbicidal effect rating, K: Italian ryegrass: 0 (Herbicidal rate of 5% or less (almost no effect))
Blackgrass [8]
  herbicidal effect rating, J: blackgrass: 0 (Herbicidal rate of 5% or less (almost no effect))
Redroot pigweed [9]; [26]
  herbicidal effect grade, N: redroot pigweed: 0 (Herbicidal rate of 5% or less (almost no effect))
Green foxtail [10]
  herbicidal effect rating, G: green foxtail: 0 (Herbicidal rate of 5% or less (almost no effect))
Southern crabgrass [11]
  herbicidal effect rating, F: southern crabgrass: 0 (Herbicidal rate of 5% or less (almost no effect))
Chickweed [12]
  herbicidal effect rating, P: chickweed: 3 (Herbicidal rate of 40% or more and less than 70%)
Chinese sprangletop; 320 g/ha
  herbicidal effect on D (Chinese sprangletop), rating 0-5: 0 (Herbicidal rate of 5% or less (almost no effect))
Windgrass [13]; [26]
  herbicidal effect grade, L: windgrass: 0 (Herbicidal rate of 5% or less (almost no effect))
Chickweed [14]; [26]
  herbicidal effect grade, P: chickweed: 4 (Herbicidal rate of 70% or more and less than 90%)
Blackgrass [15]; [26]
  herbicidal effect grade, J: blackgrass: 0 (Herbicidal rate of 5% or less (almost no effect))
Redroot pigweed [16]
  herbicidal effect rating, N: redroot pigweed: 0 (Herbicidal rate of 5% or less (almost no effect))
Wild oat [17]
  herbicidal effect rating, I: wild oat: 0 (Herbicidal rate of 5% or less (almost no effect))
Persian speedwell [18]; [26]
  herbicidal effect grade, R: persian speedwell: 0 (Herbicidal rate of 5% or less (almost no effect))
Lambsquarters [19]; [26]
  herbicidal effect grade, O: lambsquarters: 0 (Herbicidal rate of 5% or less (almost no effect))
Windgrass [20]
  herbicidal effect rating, L: windgrass: 0 (Herbicidal rate of 5% or less (almost no effect))
Barnyard grass [21]; [26]
  herbicidal effect grade, H: barnyard grass: 0 (Herbicidal rate of 5% or less (almost no effect))
Barnyard grass [22]; 320 g/ha
  herbicidal effect on H (barnyard grass), rating 0-5: 3 (Herbicidal rate of 40% or more and less than 70%)
Wild oat [23]; [26]
  herbicidal effect grade, I: wild oat: 0 (Herbicidal rate of 5% or less (almost no effect))
Green foxtail [24]; [26]
  herbicidal effect grade, G: green foxtail: 0 (Herbicidal rate of 5% or less (almost no effect))
Lambsquarters [25]
  herbicidal effect rating, O: lambsquarters: 0 (Herbicidal rate of 5% or less (almost no effect))

## CCn1nc(C)c(O)c(-c2c(-c3ccccc3OC)sc3ccc(F)cc23)c1=O [2-404]
False cleavers
  herbicidal effect, Q: false cleavers: 0 (Herbicidal rate of 5% or less (almost no effect))
Barnyard grass [1]
  herbicidal effect, H: barnyard grass: 0 (Herbicidal rate of 5% or less (almost no effect))
Rice flat sedge; [27]
  herbicidal effect on E: rice flat sedge: 3 (Herbicidal rate of 40% or more and less than 70%)
Velvetleaf [2]
  herbicidal effect, M: velvetleaf: 0 (Herbicidal rate of 5% or less (almost no effect))
Persian speedwell [3]
  herbicidal effect, R: persian speedwell: 0 (Herbicidal rate of 5% or less (almost no effect))
Italian ryegrass [4]; [28]
  K: Italian ryegrass, herbicidal effect (criteria 0-5): 0 (Herbicidal rate of 5% or less (almost no effect))
Southern crabgrass [5]; [28]
  F: southern crabgrass, herbicidal effect (criteria 0-5): 2 (Herbicidal rate of 20% or more and less than 40%)
Velvetleaf [6]; [28]
  M: velvetleaf, herbicidal effect (criteria 0-5): 3 (Herbicidal rate of 40% or more and less than 70%)
Italian ryegrass [7]
  herbicidal effect, K: Italian ryegrass: 0 (Herbicidal rate of 5% or less (almost no effect))
Blackgrass [8]
  herbicidal effect, J: blackgrass: 0 (Herbicidal rate of 5% or less (almost no effect))
Redroot pigweed [9]; [28]
  N: redroot pigweed, herbicidal effect (criteria 0-5): 5 (Herbicidal rate of 90% or more (almost completely withered))
Green foxtail [10]
  herbicidal effect, G: green foxtail: 0 (Herbicidal rate of 5% or less (almost no effect))
Southern crabgrass [11]
  herbicidal effect, F: southern crabgrass: 0 (Herbicidal rate of 5% or less (almost no effect))
Chickweed [12]
  herbicidal effect, P: chickweed: 0 (Herbicidal rate of 5% or less (almost no effect))
Chinese sprangletop; [27]
  herbicidal effect on D: Chinese sprangletop: 0 (Herbicidal rate of 5% or less (almost no effect))
Windgrass [13]; [28]
  L: windgrass, herbicidal effect (criteria 0-5): 0 (Herbicidal rate of 5% or less (almost no effect))
Chickweed [14]; [28]
  P: chickweed, herbicidal effect (criteria 0-5): 5 (Herbicidal rate of 90% or more (almost completely withered))
Blackgrass [15]; [28]
  J: blackgrass, herbicidal effect (criteria 0-5): 0 (Herbicidal rate of 5% or less (almost no effect))
Redroot pigweed [16]
  herbicidal effect, N: redroot pigweed: 3 (Herbicidal rate of 40% or more and less than 70%)
Wild oat [17]
  herbicidal effect, I: wild oat: 0 (Herbicidal rate of 5% or less (almost no effect))
Persian speedwell [18]; [28]
  R: persian speedwell, herbicidal effect (criteria 0-5): 5 (Herbicidal rate of 90% or more (almost completely withered))
Lambsquarters [19]; [28]
  O: lambsquarters, herbicidal effect (criteria 0-5): 3 (Herbicidal rate of 40% or more and less than 70%)
Windgrass [20]
  herbicidal effect, L: windgrass: 0 (Herbicidal rate of 5% or less (almost no effect))
Barnyard grass [21]; [28]
  H: barnyard grass, herbicidal effect (criteria 0-5): 3 (Herbicidal rate of 40% or more and less than 70%)
Barnyard grass [22]; [27]
  herbicidal effect on H: barnyard grass: 3 (Herbicidal rate of 40% or more and less than 70%)
Wild oat [23]; [28]
  I: wild oat, herbicidal effect (criteria 0-5): 0 (Herbicidal rate of 5% or less (almost no effect))
Green foxtail [24]; [28]
  G: green foxtail, herbicidal effect (criteria 0-5): 1 (Herbicidal rate of 5% or more and less than 20%)
Lambsquarters [25]
  herbicidal effect, O: lambsquarters: 3 (Herbicidal rate of 40% or more and less than 70%)
